Measurements: US20110009352A1, “RESTORATIVE AGENT FOR ANTIBACTERIAL PEPTIDE PRODUCTION ABILITY” (Minophagen Pharmaceutical Co., LTD., priority 2009, published 2011)

B1: IL-10: interleukin-10 produced by known recombinant DNA technology, 1 ng/ml (Reference Example 19) (protein, UniProt P18893 19-178, looked up)
Interleukin-10: SRGQYSREDNNCTHFPVGQSHMLLELRTAFSQVKTFFQTKDQLDNILLTDSLMQDFKGYLGCQALSEMIQFYLVEVMPQAEKHGPEIKEHLNSLGEKLKTLRMRLRRCHRFLPCENKSKAVEQVKSDFNKLQDQGVYKAMNEFDIFINCIEAYMMIKMKS

Assays:
MBD-1 [1] = test: MBD-1 production of epidermal keratinocytes cultured with recombinant CCL2 and/or IL-10; type: cell-based, mouse; details: recombinant CCL2 5 ng/ml and/or IL-10 1 ng/ml; 48 hours
Procedure: Epidermal keratinocytes (2×10^6 cells/ml) collected from the skin of a normal mouse were cultured at 37° C. in the co-presence of CCL2 (5 ng/ml) (Reference Example 18), IL-10 (1 ng/ml) (Reference Example 19), or CCL2 (5 ng/ml) and IL-10 (1 ng/ml) (Reference Example 20), which had been produced by a known recombinant DNA technology using a recombinant. The amount of MBD-1 in the supernatant of the culture fluid after 48 hours from the initiation of culture was measured by ELISA.

MBD-3 = test: Amount of MBD-3 in culture supernatant of LPS-treated epidermal keratinocytes and/or Gr-1+CD11b+ cells (Transwell, ELISA); type: cell-based, mouse; details: 10 μg/ml, 48 hours
Procedure: (§1) Epidermal keratinocytes (EK) were collected from the skin of a normal mouse, and a cell solution was prepared to a concentration of 2×10^6 cells/ml using RPMI1640 medium supplemented with 10% inactivated fetal bovine serum. In order to induce MBD-3, the cells were treated with lipopolysaccharides (LPS) in an amount of 1 μg/ml for 6 hours. Furthermore, a normal mouse was given a burn injury on its dorsal side, and after 12 hours, Gr-1^+CD11b^+ cells were collected from the skin tissues around the burn site. A cell solution of the collected cells was prepared to a concentration of 5×10^5 cells/ml using RPMI1640 medium supplemented with 10% inactivated fetal bovine serum. In the co-presence of glycyrrhizin in an amount of 10 μg/ml, the LPS-treated epidermal keratinocytes and the Gr-1^+CD11b^+ cells were cultured in a same Transwell at 37° C. After 48 hours from the initiation of culture, the amount of MBD-3 in the supernatant of the culture fluid was measured by ELISA. The experiment was carried out in the same manner as in Example 5, except that glycyrrhizin was not allowed to be co-present, and the amount of MBD-3 in the supernatant of the culture fluid was measured. The experiment was carried out in the same manner as in Example 5, except that only LPS-treated epidermal keratinocytes (2×10^6 cells/ml) were cultured without allowing glycyrrhizin to be co-present, and the amount of MBD-3 in the supernatant of the culture fluid was measured. The experiment was carried out in the same manner as in Example 5, except that only LPS-treated epidermal keratinocytes (2×10^6 cells/ml) were cultured in the co-presence of glycyrrhizin in an amount of 10 μg/ml, and the amount of MBD-3 in the supernatant of the culture fluid was measured. The experiment was carried out in the same manner as in Example 5, except that only Gr-1^+CD11b^+ cells (5×10^5 cells/ml) were cultured without allowing glycyrrhizin to be co-present, and the amount of MBD-3 in the supernatant of the culture fluid was measured.

MBD-1 [2] = test: Amount of MBD-1 in skin tissue homogenate around the burn site (ELISA); type: in vivo; details: 10 mg/kg i.p. 2 hours after burn, skin collected 0.5-24 hours after burn
Procedure: A normal mouse was given a burn injury on its dorsal side, and was intraperitoneally administered with glycyrrhizin in an amount of 10 mg per kg of body weight of the mouse (an amount of 10 mg/kg), 2 hours after the occurrence of burn injury. The skin tissue was collected from the surroundings of the burn site after 0.5 hours, 6 hours, 12 hours, 18 hours and 24 hours from the occurrence of burn injury, and the collected skin tissues were homogenized. The amount of MBD-1 in the homogenate liquid was measured by ELISA. The horizontal axis of the graph of FIG. 5 represents the time (hours) after the occurrence of burn injury. The experiment was carried out in the same manner as in Example 3, except that physiological saline was intraperitoneally administered instead of glycyrrhizin, and the amount of MBD-1 in the homogenate liquid was measured.

Pseudomonas aeruginosa [3] = test: Survival rate of burn-injured, Pseudomonas aeruginosa-administered mice; type: in vivo, mouse
Procedure: A normal mouse was given a burn injury on the dorsal side, and Pseudomonas aeruginosa was applied to the burn site in an amount of 100 CFU (Colony-Forming Units). Subsequently, glycyrrhizin was intraperitoneally administered to the mouse at 2 hours, 24 hours and 72 hours after the occurrence of burn injury, each time in an amount of 10 mg per kilogram of body weight of the mouse (an amount of 10 mg/kg), and it was checked whether the mouse was alive or dead. The same operation was carried out on 10 mice, and the survival rate of the mice was checked. The horizontal axis of the graph of FIG. 1 represents the number of days (days) after the Pseudomonas aeruginosa infection.
The experiment was carried out in the same manner as in Example 1, except that physiological saline was intraperitoneally administered instead of glycyrrhizin, and the survival rate of the mice was checked.

Pseudomonas aeruginosa [4] = test: Amount of Pseudomonas aeruginosa in blood and spleen homogenate specimens of infected burn mice (colony counting); type: in vivo; details: 100 CFU, 10 mg/kg i.p. at 2 and 12 hours after infection, 48 hours after infection
Procedure: A normal mouse was given a burn injury on its dorsal side, and was infected at the burn site with Pseudomonas aeruginosa in an amount of 100 CFU. Subsequently, glycyrrhizin was intraperitoneally administered to the mouse at 2 hours and 12 hours after the infection with Pseudomonas aeruginosa, each time in an amount of 10 mg per kilogram of body weight of the mouse (an amount of 10 mg/kg). Subsequently, after 48 hours from the infection with Pseudomonas aeruginosa, blood and spleen were collected from the mouse, and the amounts of Pseudomonas aeruginosa in the blood specimen and the spleen homogenate specimen were measured by a colony-counting method. The vertical axis of the graph of FIG. 4 represents the amount of Pseudomonas aeruginosa in 1 ml of the specimen (amount of CFU). The experiment was carried out in the same manner as in Example 2, except that physiological saline was intraperitoneally administered instead of glycyrrhizin, and the amounts of Pseudomonas aeruginosa in the blood specimen and the spleen homogenate specimen were measured.

MBD-1 [5] = test: Amount of MBD-1 in culture supernatant of epidermal keratinocytes and/or Gr-1+CD11b+ cells (Transwell, ELISA); type: cell-based, mouse; details: 10 μg/ml, 48 hours
Procedure: as §1, with “serum.” for “serum. In order to induce MBD-3, the cells were treated with lipopolysaccharides (LPS) in an amount of 1 μg/ml for 6 hours.”, “the” for “the LPS-treated”, “MBD-1” for “MBD-3”, “4,” for “5,”, “only” for “only LPS-treated”

IL-10 = IL-10 production by Gr-1+CD11b+ cells (ELISA); type: cell-based, mouse; details: 10 μg/ml; 48 hours; vs no glycyrrhizin
Procedure: (§2) A normal mouse was given a burn injury on its dorsal side, and after 12 hours, Gr-1^+CD11b^+ cells (2×10^6 cells/ml) were collected from the skin tissue around the burn site. Using the keratinocyte culture medium as a medium, the Gr-1^+CD11b^+ cells were cultured in a 96-well plate at 37° C. in the co-present of glycyrrhizin in an amount of 10 μg/ml. After 48 hours from the initiation of culture, the amounts of CCL2 and IL-10 in the supernatant of the culture fluid were measured by ELISA. […] The experiment was carried out in the same manner as in Example 10, except that glycyrrhizin was not made to be co-present, and the amounts of CCL2 and IL-10 in the supernatant of the culture fluid were measured.

MBD-1 [6] = test: Quantity-dependency of glycyrrhizin on MBD-1 production ability restoration (Transwell co-culture, ELISA); type: cell-based, mouse; details: 48 hours
Procedure: Epidermal keratinocytes (2×10^6 cells/ml) were collected from the skin of a normal mouse. Furthermore, a normal mouse was given a burn injury on its dorsal side, and after 12 hours, Gr-1^+CD11b^+ cells (5×10^5 cells/ml) were collected from the skin tissues around the burn site. Using the medium for keratinocyte culture as a medium, and making glycyrrhizin to be co-present in an amount of 1 μg/ml (Example 6), 10 μg/ml (Example 7), 100 μg/ml (Example 8) or 300 μg/ml (Example 9), the epidermal keratinocytes and the Gr-1^+CD11b^+ cells were cultured in a same Transwell at 37° C. The amount of MBD-1 in the supernatant of the culture fluid after 48 hours from the initiation of culture was measured by ELISA. The results are shown in the semilogarithmic graph of FIG. 8. The experiment was carried out in the same manner as in Examples 6 to 9, except that glycyrrhizin was not made to be co-present, and the amount of MBD-1 in the supernatant of the culture fluid was measured. The results are shown in the bar graph of FIG. 8. […] Furthermore, the two graphs share the vertical axis (the amount of MBD-1).

CCL2 = CCL2 production by Gr-1+CD11b+ cells (ELISA); type: cell-based, mouse; details: 10 μg/ml; 48 hours; vs no glycyrrhizin
Procedure: as §2

| Molecule | MBD-1 production ability of the epidermal keratinocytes (MBD-1 [1]) | MBD-3 production ability promoting effect against LPS-treated epidermal keratinocytes (MBD-3; LPS-treated epidermal keratinocytes alone) | amount of MBD-3 in culture supernatant vs no glycyrrhizin (MBD-3; co-culture of LPS-treated epidermal keratinocytes and Gr-1+CD11b+ cells) | MBD-3 production ability inhibiting effect of Gr-1+CD11b+ cells against LPS-treated epidermal keratinocytes (MBD-3; co-culture) | amount of MBD-1 in skin tissue homogenate vs saline mouse (MBD-1 [2]) | deaths among the mice (survival) (Pseudomonas aeruginosa [3]; 100 CFU P. aeruginosa at burn site, 10 mg/kg i.p. at 2, 24 and 72 hours after burn, up to the 7th day, 10 mice) | survival rate compared with mice not administered with glycyrrhizin (physiological saline) (Pseudomonas aeruginosa [3]; 100 CFU P. aeruginosa, 10 mg/kg i.p. at 2, 24 and 72 hours, after 2 days and on) | amount of Pseudomonas aeruginosa in the blood specimen vs saline mouse (Pseudomonas aeruginosa [4]) | amount of Pseudomonas aeruginosa in the spleen homogenate specimen vs saline mouse (Pseudomonas aeruginosa [4]) | amount of MBD-1 in culture supernatant vs no glycyrrhizin (MBD-1 [5]; co-culture of epidermal keratinocytes and Gr-1+CD11b+ cells) | MBD-1 production ability inhibiting effect of Gr-1+CD11b+ cells against epidermal keratinocytes (MBD-1 [5]; co-culture) | MBD-1 production ability promoting effect against epidermal keratinocytes (MBD-1 [5]; epidermal keratinocytes alone) | IL-10 production ability of Gr-1+CD11b+ cells (IL-10) | MBD-1 production ability restoring effect (MBD-1 [6]; glycyrrhizin 10 μg/ml (Example 7)) | MBD-1 production ability restoring effect (MBD-1 [6]; glycyrrhizin 100 μg/ml (Example 8)) | MBD-1 production ability restoring effect (MBD-1 [6]; glycyrrhizin 300 μg/ml (Example 9)) | CCL2 production ability of Gr-1+CD11b+ cells (CCL2) |
| --- | --- | --- | --- | --- | --- | --- | --- | --- | --- | --- | --- | --- | --- | --- | --- | --- | --- |
| CCL2: chemokine CCL2 produced by known recombinant DNA technology, 5 ng/ml (Reference Example 18) | inhibited | – | – | – | – | – | – | – | – | – | – | – | – | – | – | – | – |
| CC1(C)[C@@H](O[C@H]2O[C@H](C(=O)O)[C@@H](O)[C@H](O)[C@H]2O[C@@H]2O[C@H](C(=O)O)[C@@H](O)[C@H](O)[C@H]2O)CC[C@]2(C)[C@H]3C(=O)C=C4[C@@H]5C[C@@](C)(C(=O)O)CC[C@]5(C)CC[C@@]4(C)[C@]3(C)CC[C@@H]12 [glycyrrhizin] | – | did not have an MBD-3 production ability promoting effect | larger | reduced this inhibiting effect | larger | none of the individuals died | markedly high | markedly reduced | markedly reduced | larger | reduced this inhibiting effect | did not have an MBD-1 production ability promoting effect | inhibited | particularly excellent | particularly excellent | particularly excellent | inhibited |
| B1 | inhibited | – | – | – | – | – | – | – | – | – | – | – | – | – | – | – | – |
